Test results as given in patent US10857113B2, “Bezafibrate for the treatment of cancer” (Cipla Limited, priority 2016, dated 2020).
Where two headings read alike, the source gives them in different places.

Legend:
786-O = assay: In vitro 3D clonogenic assay; type: cell-based; settings: Homo sapiens, 786-0, 3D model, colony formation, 8 to 13 days continuous exposure
Description: (§1) Cell lines were routinely passaged one or twice weekly. All cells were grown at 37° C. in a humidified atmosphere with 5% CO2 in RPMI 1640 medium (Biochrom) supplemented with 10% (v/v) fetal calf serum and 0.1 mg/mL gentamicin. The percentage of viable cells was determined in a Neubauer-hemocytometer using trypan blue exclusion.
(§2) Tumor xenografts (patient-derived, as well as cell line-derived xenografts) were passaged as subcutaneous xenografts in NMRI nu/nu mice. At a tumor volume of 400-1,000 mm^3 tumor-bearing mice were sacrificed and tumors were collected under sterile conditions without delay according to the relevant Oncotest SOPs and the relevant animal welfare guidelines published by the FELASA and the GV-SOLAS. Tumors were mechanically disaggregated and subsequently incubated with an enzyme cocktail consisting of collagenase type IV (41 U/mL), DNase I (125 U/mL), hyaluronidase type III (100 U/mL), and dispase II (1.0 U/mL) in RPMI 1640 medium (Life Technologies) at 37° C. for 60-120 minutes. Cells were passed through sieves of 100 μm and 40 μm mesh size (Cell Strainer, BD Falcon™), and washed with RPMI 1640 medium. The percentage of viable cells was determined in a Neubauer-hemocytometer using trypan blue exclusion. Aliquots of the cells were frozen down, and stored in liquid nitrogen. On each day of an experiment, a frozen aliquot of tumor cells was thawed and used for preparation of assay plates.
(§3) The clonogenic assay was carried out in a 96 well plate format using ultra low attachment plates. For each test, cells were prepared as described above and assay plates were prepared as follows: each test well contained a layer of semi-solid medium with tumor cells (50 and a second layer of medium supernatant with or without test compound (100 The cell layer consisted of 2.5·10^3 to 1·10^4 tumor cells per well, which were seeded in 50 μL/well cell culture medium (IMDM, supplemented with 20% (v/v) fetal calf serum, 0.01% (w/v) gentamicin, and 0.4% (w/v) agar). After 24 hours the test compounds were added after serial dilution in cell culture medium, and left on the cells for the duration of the experiment (continuous exposure, 100 μl drug overlay). Every plate included six untreated control wells and drug-treated groups in duplicate at 9 concentrations. Cultures were incubated at 37° C. and 7.5% CO2 in a humidified atmosphere for 8 to 13 days and monitored closely for colony growth using an inverted microscope. Within this period, ex vivo tumor growth led to the formation of colonies with a diameter of >50 μm. At the time of maximum colony formation, counts were performed with an automatic image analysis system (CellInsight NXT, Thermo Scientific). 48 hours prior to evaluation, vital colonies were stained with a sterile aqueous solution of 2-(4-iodophenyl)-3-(4-nitrophenyl)-5-phenyltetrazolium chloride (1 mg/ml, 100 μl/well).

A-498 = assay: In vitro 3D clonogenic assay; type: cell-based; settings: Homo sapiens, A498, 3D model, colony formation, 8 to 13 days continuous exposure
Description: as §1, §2, §3

ACHN = assay: In vitro 3D clonogenic assay; type: cell-based; settings: Homo sapiens, 3D model, colony formation, 8 to 13 days continuous exposure
Description: as §1, §2, §3

Caki-1 = assay: In vitro 3D clonogenic assay; type: cell-based; settings: Homo sapiens, 3D model, colony formation, 8 to 13 days continuous exposure
Description: as §1, §2, §3

RXF 1183L = assay: In vitro 3D clonogenic assay; type: cell-based; settings: Homo sapiens, 3D model, colony formation, 8 to 13 days continuous exposure
Description: as §1, §2, §3

RXF 1220L = assay: In vitro 3D clonogenic assay; type: cell-based; settings: Homo sapiens, 3D model, colony formation, 8 to 13 days continuous exposure
Description: as §1, §2, §3

RXF 1781L = assay: In vitro 3D clonogenic assay; type: cell-based; settings: Homo sapiens, 3D model, colony formation, 8 to 13 days continuous exposure
Description: as §1, §2, §3

RXF 393L = assay: In vitro 3D clonogenic assay; type: cell-based; settings: Homo sapiens, 3D model, colony formation, 8 to 13 days continuous exposure
Description: as §1, §2, §3

RXF 486L = assay: In vitro 3D clonogenic assay; type: cell-based; settings: Homo sapiens, 3D model, colony formation, 8 to 13 days continuous exposure
Description: as §1, §2, §3

SN12C = assay: In vitro 3D clonogenic assay; type: cell-based; settings: Homo sapiens, 3D model, colony formation, 8 to 13 days continuous exposure
Description: as §1, §2, §3

A498 cells = assay: In vivo animal efficacy study, subcutaneous tumor fragment xenograft; set-up: species or system female athymic nude mice; settings: sunitinib 20 mg/kg, bezafibrate 150 mg/kg, p.o. q.d. × 21
Description: Healthy 10 female athymic nude mice were recruited for the donor cell inoculation. Animals were subcutaneously injected at flank region with 10 million A498 cells suspended in 200 μl of media and matrigel. Animals were monitored for solid tumor growth. […] Tumors were fragmented in to ˜30 mg size. […] [table] The tumor sizes were measured weekly twice from the date of tumor appearance till the end of the experiment. Tumor size was measured by digital vernier caliper (MITUTOYO) by measuring length (L=longest axis) and width (W=shortest axis). Tumor Volume (V) was calculated using formula: […] Mean tumor volume and % tumor growth inhibition (% TGI) were then calculated (SEM=standard error of mean).

[1] = background statement; cited from earlier work

CC(C)(Oc1ccc(CCNC(=O)c2ccc(Cl)cc2)cc1)C(=O)O [Bezafibrate]
IC50 (786-O; read-out: Absolute IC50): 1340 µM | IC50 (786-O; read-out: Relative IC50): 1470 µM | IC50 (A-498; read-out: Absolute IC50): 764 µM | IC50 (A-498; read-out: Relative IC50): 773 µM | IC50 (ACHN; read-out: Absolute IC50): 1010 µM | IC50 (ACHN; read-out: Relative IC50): 1060 µM | IC50 (Caki-1; read-out: Absolute IC50): 1290 µM | IC50 (Caki-1; read-out: Relative IC50): 1290 µM | IC50 (RXF 1183L; read-out: Absolute IC50): 609 µM | IC50 (RXF 1183L; read-out: Relative IC50): 712 µM | IC50 (RXF 1220L; read-out: Absolute IC50): 1160 µM | IC50 (RXF 1220L; read-out: Relative IC50): 1230 µM | IC50 (RXF 1781L; read-out: Absolute IC50): 1030 µM | IC50 (RXF 1781L; read-out: Relative IC50): 1100 µM | IC50 (RXF 393L; read-out: Absolute IC50): 1270 µM | IC50 (RXF 393L; read-out: Relative IC50): 1280 µM | IC50 (RXF 486L; read-out: Absolute IC50): 993 µM | IC50 (RXF 486L; read-out: Relative IC50): 962 µM | IC50 (SN12C; read-out: Absolute IC50): 463 µM | IC50 (SN12C; read-out: Relative IC50): 463 µM | Tumor Growth Inhibition (A498 cells; Day 1): 0.44% | Tumor Volume, Mean (A498 cells; Day 1): 146.92 mm^3 | Tumor Volume, Mean (A498 cells; Day 6): 198.50 mm^3 | Tumor Growth Inhibition (A498 cells; Day 9): 21.70% | Tumor Volume, Mean (A498 cells; Day 9): 363.14 mm^3 | Tumor Growth Inhibition (A498 cells; Day 13): 24.92% | Tumor Volume, Mean (A498 cells; Day 13): 463.30 mm^3 | Tumor Growth Inhibition (A498 cells; Day 16): 26.18% | Tumor Volume, Mean (A498 cells; Day 16): 709.65 mm^3 | Tumor Growth Inhibition (A498 cells; Day 20): 31.59% | Tumor Volume, Mean (A498 cells; Day 20): 875.99 mm^3 | Anti-tumor efficacy / effect in inhibiting tumor growth (in words) (A498 cells): shows anti-tumor efficacy | Reduction of low-density lipoprotein cholesterol (LDL-C) [1]: 15-20% | Reduction of triglycerides [1]: 30-50%
